Assay results taken from paper PMC7866972, “Crosstalk of Cancer Signaling Pathways by Cyclic Hexapeptides and Anthraquinones from Rubia cordifolia” (Molecules, 2021).

Experiments:
Format in all cases: cell-based
[1] = system: Stat3; test: Stat3 luciferase reporter assay (IL-6 induced); details: Homo sapiens, HeLa cells
Method: (§1) Hela cells from ATCC were plated in white opaque 384 well plates at a density of 4300 cells/well in 30 µL of a growth medium (DMEM with 10% FBS and 1% Pen/step). The next day, the medium was aspirated and replaced with DMEM containing 10% FBS. The cells were transfected with respective plasmids using the X-tremeGENE HP transfection reagent (Roche). Luciferase vectors used in this assay are summarized in Table S2, Supporting Information. After 24 h of transfection, the test agents were added to the transfected cells, followed 30 min later by an inducing agent (IL-6 for Stat 3, TGF-beta for Smad, m-wnt3a for Wnt and PMA for AP-1, NF-kB, E2F, Myc, ETS, Notch and Hedgehog). No inducer was added for FoXO, miR-21, and […]. After 4 h or 6 h of induction, the cells were lysed by the addition of the One-Glo luciferase assay system (Promega, Madison, WI, USA). The light output was detected in a Glomax Multi+ detection system with the Instinct Software (Promega, Madison, WI, USA). This luciferase assay determines if the test agent was able to inhibit the activation of cancer-related signaling pathways. In the case of FoxO and mi-R21, the enhanced luciferase activity by the test agent was assessed.

[2] = system: NF-κB; test: NF-κB luciferase reporter assay (PMA induced); details: HeLa cells
Method: as §1

[3] = system: Smad; test: Smad luciferase reporter assay (TGF-beta induced); details: Homo sapiens, HeLa cells
Method: as §1

[4] = system: Ets; test: Ets luciferase reporter assay (PMA induced); details: Homo sapiens, HeLa cells
Method: as §1

[5] = system: FoxO; test: FoxO luciferase reporter assay (no inducer); details: Homo sapiens, HeLa cells, 6 h, read-out: percentage of luciferase induction FoxO/No Induction
Method: as §1

[6] = system: cancer-related signaling pathways in HeLa cells; test: Panel of luciferase reporter genes for cancer-related signaling pathways; details: HeLa cells; 30 µM
Method: as §1
The simulated gastric fluid was prepared as described in the United States Pharmacopoeia (USP, 1995) and consists of 0.2% w/v of NaCl and 0.7% v/v of hydrochloric acid at pH 1.2. Aliquots (48 µL) of SGF were placed in 1.5-mL microcentrifuge tubes and incubated in a water bath at 37 °C [35]. In addition, 2 µL of compound 6 (10 mg/mL in DMSO) was added to each of the SGF vials to start the digestion reaction. The incubation was continued for 60 min and the digestion was stopped with 150 µL of ice-cold cell culture media. The digested samples were used for the cytotoxicity and luciferase assays at different concentrations and the activities were compared between the untreated and SGF treated peptide samples.

[7] = system: E2F; test: E2F luciferase reporter assay (PMA induced); details: Homo sapiens, HeLa cells, compared to pTK as control, 4 h, read-out: percentage of luciferase induction E2F/PMA
Method: as §1

[8] = system: Notch; test: Notch luciferase reporter assay (PMA induced); details: Homo sapiens, HeLa cells, compared to pTK as control, 6 h, read-out: percentage of luciferase induction Notch/PMA
Method: as §1

[9] = system: Wnt; test: Wnt luciferase reporter assay (m-wnt3a induced); details: Homo sapiens, HeLa cells
Method: as §1

[10] = system: Hedgehog; test: Hedgehog luciferase reporter assay (PMA induced); details: Homo sapiens, HeLa cells, compared to pTK as control, 6 h, read-out: percentage of luciferase induction Hdghog/PMA
Method: as §1

[11] = system: Myc; test: Myc luciferase reporter assay (PMA induced); details: Homo sapiens, HeLa cells
Method: as §1

[12] = system: Ap-1; test: AP-1 luciferase reporter assay (PMA induced); details: HeLa cells, compared to pTK as control, 4 h, read-out: percentage of luciferase induction Ap-1/PMA
Method: as §1

[13] = system: miR-21; test: miR-21 luciferase reporter assay (no inducer); details: Homo sapiens, HeLa cells, 6 h, read-out: percentage of luciferase induction mi-R21/No Induction
Method: as §1

[14] = system: pTK control vector; test: pTK control vector luciferase assay (minimal thymidine kinase promoter); details: Homo sapiens, HeLa cells, no inducer, read-out: percentage of luciferase induction pTK/No Induction
Method: as §1

[15] = compared to pTK as control, 4 h, read-out: percentage of luciferase induction Stat3/IL-6
[16] = Homo sapiens, compared to pTK as control, 4 h, read-out: percentage of luciferase induction NF-kB/PMA
[17] = compared to pTK as control, 4 h, read-out: percentage of luciferase induction Smad/TGF-β
[18] = compared to pTK as control, 4 h, read-out: percentage of luciferase induction Ets/PMA
[19] = compared to pTK as control, 6 h, read-out: percentage of luciferase induction Wnt/m-wnt 3a
[20] = compared to pTK as control, 4 h, read-out: percentage of luciferase induction Myc/PMA

Compound	activity at 30 µM [1, 15] [%]	activity at 30 µM [2, 16] [%]	activity at 30 µM [3, 17] [%]	activity at 30 µM [4, 18] [%]	activity at 30 µM [5] [%]	activity towards the signaling pathways (in words) [6]	activity at 30 µM [7] [%]	activity at 30 µM [8] [%]	activity at 30 µM [9, 19] [%]	activity at 30 µM [10] [%]	activity at 30 µM [11, 20] [%]	activity at 30 µM [12] [%]	activity at 30 µM [13] [%]	activity at 30 µM [14] [%]	also measured
Cc1cc(O)c2c(c1)C(=O)c1cc(O)cc(O)c1C2=O [Compound 3, emodin]	48	45	46	53	112	inhibited the activation of several pathways with Wnt being the most sensitive	144	424	11	42	46	45	309	144	–
O=C1c2ccccc2C(=O)c2c(O)c(O)cc(O)c21 [Compound 2, purpurin]	102	65	163	103	94	least active among these three anthraquinones	190	194	77	152	61	73	259	198	–
O=C1c2cccc(O)c2C(=O)c2c(O)cccc21 [Compound 12, danthron, reference compound]	137	62	101	120	85	–	328	126	122	168	115	122	156	101	–
CC1(C)CCC2=C(O1)C(=O)c1ccccc1C2=O [Compound 15, α-lapachone, reference compound]	–	–	–	–	–	–	–	–	–	–	–	–	–	–	activity at 5 µM ([1]; 5 µM, compared to pTK as control, 4 h, read-out: percentage of luciferase induction Stat3/IL-6): 22%; inhibition at 5 µM ([1]; 5 µM, read-out: inhibition of Stat3 induction): > 50%; inhibition of NF-kB induction ([2]; 5 µM): more than 50%; activity at 5 µM ([2]; Homo sapiens, 5 µM, compared to pTK as control, 4 h, read-out: percentage of luciferase induction NF-kB/PMA): 44%; activity at 5 µM ([3]; 5 µM, compared to pTK as control, 4 h, read-out: percentage of luciferase induction Smad/TGF-β): 27%; inhibition at 5 µM ([3]; 5 µM, read-out: inhibition of Smad induction): > 50%; activity at 5 µM ([4]; 5 µM, compared to pTK as control, 4 h, read-out: percentage of luciferase induction Ets/PMA): 45%; inhibition at 5 µM ([4]; 5 µM, read-out: inhibition of ETS induction): > 50%; activity at 5 µM ([5]; 5 µM): 100%; activity at 5 µM ([7]; 5 µM): 82%; activity at 5 µM ([8]; 5 µM): 85%; activity at 5 µM ([9]; 5 µM, compared to pTK as control, 6 h, read-out: percentage of luciferase induction Wnt/m-wnt 3a): 53%; inhibition at 5 µM ([9]; 5 µM, read-out: inhibition of Wnt induction): > 50%; activity at 5 µM ([10]; 5 µM): 86%; activity at 5 µM ([11]; 5 µM, compared to pTK as control, 4 h, read-out: percentage of luciferase induction Myc/PMA): 44%; inhibition at 5 µM ([11]; 5 µM, read-out: inhibition of Myc induction): > 50%; activity at 5 µM ([12]; 5 µM): 88%; activity at 5 µM ([13]; 5 µM): 127%; activity at 5 µM ([14]; 5 µM): 97%
O=C1c2ccccc2C(=O)c2c(O)ccc(O)c21 [Compound 13, quinizarin, reference compound]	164	62	159	127	101	–	282	198	97	142	81	107	171	134	–
O=C1c2ccccc2C(=O)c2c1ccc(O)c2O [Compound 1, alizarin]	81	60	109	66	69	selective inhibition of Wnt and Hedgehog signaling pathways	172	106	46	57	61	87	141	116	–
O=C1c2cccc(O)c2C(=O)c2c(O)cc(CO)cc21 [Compound 14, aloe-emodin, reference compound]	132	–	78	128	109	–	178	157	129	99	95	138	167	136	–
Cc1cc(O)c2c(c1)C(=O)c1cccc(O)c1C2=O [Compound 11, chrysophanol, reference compound]	171	90	160	130	102	–	251	195	114	214	144	115	280	183	–
